Columns and labels:
Assay type in all cases: cell-based, human
DM1 myoblasts [1] = experiment: Toxicity by shape and size of the nuclei of DM1 myoblasts; design: key: −: Nontoxic; +: 10% alterations in nuclei shape and size; ++: 20-30% alterations in nuclei shape and size; +++: 40-50% alterations in nuclei shape and size; ++++: 60% alterations in nuclei shape and size; +++++: very sick, almost no surviving cells; conditions: 4 days
[2] = test system: CUG-RNA foci in DM1 myoblasts; experiment: FISH analysis of nuclear CUG-RNA foci in DM1 myoblasts; conditions: 4 days, FISH
Description: DM1 myoblasts were then treated with 10 μM of either RCN-001 or the vehicle (DMSO) for 4 days and then examined by FISH using a Cy3 (CAG)10 probe.
Normal myoblasts were purchased from Lonza, Inc. DM1 myoblasts were a gift from Dr. Charles Thornton. Normal and DM1 myoblasts were maintained in SkGM Medium (Lonza, Inc.) containing 10% Fetal Bovine Serum and 1% Penicillin-Streptomycin, 5% CO2 at 37° C. Human Embryonic Kidney 293 Cells (293HEK) were maintained in Dulbecco's Modification of Eagle's Medium (DMEM) from Cellgro supplemented with 10% Fetal Bovine Serum and 1% Penicillin-Streptomycin, 5% CO2 at 37° C.
CUG-RNA foci were detected by performing FISH on untreated DM1 myoblasts and DM1 myoblasts following treatment. For FISH analysis, DM1 myoblasts were plated on a 24-well clear bottom polystyrene plate with circular glass coverslips followed by treatment. Prior to FISH analysis, cells were fixed using 4% paraformaldehyde in 1×PBS for 20 min at room temperature. FISH analysis was performed using a Cy3 conjugated (CAG)10 oligonucleotide probe (Integrated DNA Technologies, Inc.) as described by Taneja et al, 1995 and Dansithong et al, 2005. CUG-RNA foci were observed as a red signal using fluorescence microscopy. Immunofluorescence was performed as described by Dansithong et al, 2008. Endogenous SHARP was detected using SHARP polyclonal antibodies from Bethyl at a dilution of 1:1000. The secondary antibodies conjugated with FITC (Invitrogen) were used at a 1:2000 dilution. Chloride channel 1 (Clcn1 a.k.a. CIC-1) was detected using CIC-1 polyclonal antibodies from Santa Cruz. The secondary antibodies conjugated with Alexa Flour 488 (Invitrogen) were used at a 1:2000 dilution. FISH analysis in mouse muscle section was carried out as described in Mancodi et al, 2000 (9).

DM1 myoblasts [3] = experiment: Viability of DM1 myoblasts by counting surviving cells; conditions: 4 days, surviving cells vs vehicle control

CCCCCCc1cc2cc(-c3csc(-c4nc(-c5cc6cc(CCCCCC)c(O)cc6oc5=O)cs4)n3)c(=O)oc2cc1O [RCN-012]
Toxicity: Toxic (DM1 myoblasts [1]; Table 4, 10 μM): − | # of Foci (percentage) 0-1: Percentage of cells with no or 1 nuclear foci ([2]; Table 4, 10 μM): 14 percentage | # of Foci (percentage) >2: Percentage of cells with 2 or greater nuclear foci ([2]; Table 4, 10 μM): 86 percentage | Toxicity: Viable (DM1 myoblasts [3]; Table 4, 10 μM): +++++ (90-100% cell survival)

CCCCCCc1cc2cc(-c3nnc(-c4cccc(F)c4)o3)c(=O)oc2cc1O [RCN-004, 3-(5-(3-fluorophenyl)-1,3,4-oxadiazol-2-yl)-6-hexyl-7-hydroxy-2H-chromen-2-one]
Toxicity: Toxic (DM1 myoblasts [1]; Table 1, 10 μM): +++ (40-50% alterations in nuclei shape and size) | # of Foci (percentage) 0-1: Percentage of cells with no or 1 nuclear foci ([2]; Table 1, 10 μM): 29 percentage | # of Foci (percentage) >2: Percentage of cells with 2 or greater nuclear foci ([2]; Table 1, 10 μM): 71 percentage | Toxicity: Viable (DM1 myoblasts [3]; Table 1, 10 μM): ++ (30-40% cell survival)

CCCCCCc1cc2cc(C(=O)Nc3cccc(OC)c3)c(=O)oc2cc1O [RCN-014, 6-hexyl-7-hydroxy-N-(3-methoxyphenyl)-2-oxo-2H-chromene-3-carboxamide]
Toxicity: Toxic (DM1 myoblasts [1]; Table 1, 10 μM): + (10% alterations in nuclei shape and size) | Toxicity: Toxic (DM1 myoblasts [1]; Table 2, 10 μM): + (10% alterations in nuclei shape and size) | # of Foci (percentage) 0-1: Percentage of cells with no or 1 nuclear foci ([2]; Table 1, 10 μM): 24 percentage | # of Foci (percentage) >2: Percentage of cells with 2 or greater nuclear foci ([2]; Table 1, 10 μM): 76 percentage | # of Foci (percentage) 0-1: Percentage of cells with no or 1 nuclear foci ([2]; Table 2, 10 μM): 24 percentage | # of Foci (percentage) >2: Percentage of cells with 2 or greater nuclear foci ([2]; Table 2, 10 μM): 76 percentage | Toxicity: Viable (DM1 myoblasts [3]; Table 1, 10 μM): ++++ (70-80% cell survival) | Toxicity: Viable (DM1 myoblasts [3]; Table 2, 10 μM): ++++ (70-80% cell survival)

CCN(CC)c1ccc2cc(-c3nnc(-c4ccc(Cl)cc4)o3)c(=O)oc2c1 [RCN-007, 3-(5-(4-chlorophenyl)-1,3,4-oxadiazol-2-yl)-7-(diethylamino)-2H-chromen-2-one]
Toxicity: Toxic (DM1 myoblasts [1]; Table 1, 10 μM): +++ (40-50% alterations in nuclei shape and size) | # of Foci (percentage) 0-1: Percentage of cells with no or 1 nuclear foci ([2]; Table 1, 10 μM): 17 percentage | # of Foci (percentage) >2: Percentage of cells with 2 or greater nuclear foci ([2]; Table 1, 10 μM): 83 percentage | Toxicity: Viable (DM1 myoblasts [3]; Table 1, 10 μM): +++ (50-60% cell survival)

CCc1cc2c(CN3CCN(S(=O)(=O)Cc4ccccc4)CC3)cc(=O)oc2cc1O [RCN-020, 4-((4-(benzylsulfonyl)piperazin-1-yl)methyl)-6-ethyl-7-hydroxy-2H-chromen-2-one]
Toxicity: Toxic (DM1 myoblasts [1]; Table 3, 10 μM): − | Toxicity: Toxic (DM1 myoblasts [1]; Table 4, 10 μM): − | # of Foci (percentage) 0-1: Percentage of cells with no or 1 nuclear foci ([2]; Table 3, 10 μM): 15 percentage | # of Foci (percentage) >2: Percentage of cells with 2 or greater nuclear foci ([2]; Table 3, 10 μM): 85 percentage | # of Foci (percentage) 0-1: Percentage of cells with no or 1 nuclear foci ([2]; Table 4, 10 μM): 15 percentage | # of Foci (percentage) >2: Percentage of cells with 2 or greater nuclear foci ([2]; Table 4, 10 μM): 85 percentage | Toxicity: Viable (DM1 myoblasts [3]; Table 3, 10 μM): +++++ (90-100% cell survival) | Toxicity: Viable (DM1 myoblasts [3]; Table 4, 10 μM): +++++ (90-100% cell survival)

CCCCCCc1cc2cc(-c3nnc(-c4ccc([N+](=O)[O-])cc4)o3)c(=O)oc2cc1O [RCN--005]
Toxicity: Toxic (DM1 myoblasts [1]; Table 1, 10 μM): ++++ (60% alterations in nuclei shape and size) | # of Foci (percentage) 0-1: Percentage of cells with no or 1 nuclear foci ([2]; Table 1, 10 μM): 14 percentage | # of Foci (percentage) >2: Percentage of cells with 2 or greater nuclear foci ([2]; Table 1, 10 μM): 86 percentage | Toxicity: Viable (DM1 myoblasts [3]; Table 1, 10 μM): + (10-20% cell survival)

CCCCCCc1cc2cc(C(=O)Nc3ccc(Br)cc3)c(=O)oc2cc1O [RCN-015, N-(4-bromophenyl)-6-hexyl-7-hydroxy-2-oxo-2H-chromene-3-carboxamide]
Toxicity: Toxic (DM1 myoblasts [1]; Table 2, 10 μM): +++ (40-50% alterations in nuclei shape and size) | # of Foci (percentage) 0-1: Percentage of cells with no or 1 nuclear foci ([2]; Table 2, 10 μM): 29 percentage | # of Foci (percentage) >2: Percentage of cells with 2 or greater nuclear foci ([2]; Table 2, 10 μM): 71 percentage | Toxicity: Viable (DM1 myoblasts [3]; Table 2, 10 μM): +++ (50-60% cell survival)

CCCCCCc1cc2cc(-c3cn4ccccc4n3)c(=O)oc2cc1O [RCN-011, 6-hexyl-7-hydroxy-3-(imidazo[1,2-a]pyridine-2-yl)-2H-chromen-2-one]
Toxicity: Toxic (DM1 myoblasts [1]; Table 4, 10 μM): − | # of Foci (percentage) 0-1: Percentage of cells with no or 1 nuclear foci ([2]; Table 4, 10 μM): 17 percentage | # of Foci (percentage) >2: Percentage of cells with 2 or greater nuclear foci ([2]; Table 4, 10 μM): 83 percentage | Toxicity: Viable (DM1 myoblasts [3]; Table 4, 10 μM): +++++ (90-100% cell survival)

CCN(CC)c1ccc2cc(-c3nnc(-c4cc5ccccc5cc4O)o3)c(=O)oc2c1 [RCN-009, 7-(diethylamino)-3-(5-(3-hydroxynaphthalen-2-yl)-1,3,4-oxadiazol-2-yl)-2H-chromen-2-one]
Toxicity: Toxic (DM1 myoblasts [1]; Table 3, 10 μM): +++ (40-50% alterations in nuclei shape and size) | # of Foci (percentage) 0-1: Percentage of cells with no or 1 nuclear foci ([2]; Table 3, 10 μM): 11 percentage | # of Foci (percentage) >2: Percentage of cells with 2 or greater nuclear foci ([2]; Table 3, 10 μM): 89 percentage | Toxicity: Viable (DM1 myoblasts [3]; Table 3, 10 μM): ++ (30-40% cell survival)

CCCCCCc1cc2cc(-c3cn4ccc(C)cc4n3)c(=O)oc2cc1O [RCN-013, 6-hexyl-7-hydroxy-3-(7-methylimidazo[1,2-a]pyridine-2-yl)-2H-chromen-2-one]
Toxicity: Toxic (DM1 myoblasts [1]; Table 4, 10 μM): +++ (40-50% alterations in nuclei shape and size) | # of Foci (percentage) 0-1: Percentage of cells with no or 1 nuclear foci ([2]; Table 4, 10 μM): 13 percentage | # of Foci (percentage) >2: Percentage of cells with 2 or greater nuclear foci ([2]; Table 4, 10 μM): 87 percentage | Toxicity: Viable (DM1 myoblasts [3]; Table 4, 10 μM): +++ (50-60% cell survival)

CCCCCCc1cc2cc(C(=O)Nc3cccc(Br)c3)c(=O)oc2cc1O [RCN-018, N-(3-bromophenyl)-6-hexyl-7-hydroxy-2-oxo-2H-chromene-3-carboxamide]
Toxicity: Toxic (DM1 myoblasts [1]; Table 2, 10 μM): +++++ | Toxicity: Viable (DM1 myoblasts [3]; Table 2, 10 μM): − (less than 10% cell survival)

CCCCCCc1cc2cc(C(=O)Nc3cccc(Cl)c3Cl)c(=N)oc2cc1O [RCN-016, N-(2,3-dichlorophenyl)-6-hexyl-7-hydroxy-2-imino-2H-chromene-3-carboxamide]
Toxicity: Toxic (DM1 myoblasts [1]; Table 2, 10 μM): ++ (20-30% alterations in nuclei shape and size) | # of Foci (percentage) 0-1: Percentage of cells with no or 1 nuclear foci ([2]; Table 2, 10 μM): 12 percentage | # of Foci (percentage) >2: Percentage of cells with 2 or greater nuclear foci ([2]; Table 2, 10 μM): 88 percentage | Toxicity: Viable (DM1 myoblasts [3]; Table 2, 10 μM): +++ (50-60% cell survival)

CCCCCCc1cc2cc(C(N)=O)/c(=N/c3ccccc3OC)oc2cc1O [RCN-019, (Z)-6-hexyl-7-hydroxy-2-((2-methoxyphenyl)imino)-2H-chromene-3-carboxamide]
Toxicity: Toxic (DM1 myoblasts [1]; Table 2, 10 μM): ++ (20-30% alterations in nuclei shape and size) | # of Foci (percentage) 0-1: Percentage of cells with no or 1 nuclear foci ([2]; Table 2, 10 μM): 14 percentage | # of Foci (percentage) >2: Percentage of cells with 2 or greater nuclear foci ([2]; Table 2, 10 μM): 86 percentage | Toxicity: Viable (DM1 myoblasts [3]; Table 2, 10 μM): +++ (50-60% cell survival)

O=c1oc2ccccc2cc1-c1nnc(-c2cccc(Br)c2)o1 [RCN-008, 3-(5-(3-bromophenyl)-1,3,4-oxadiazol-2-yl)-2H-chromen-2-one]
Toxicity: Toxic (DM1 myoblasts [1]; Table 3, 10 μM): +++ (40-50% alterations in nuclei shape and size) | # of Foci (percentage) 0-1: Percentage of cells with no or 1 nuclear foci ([2]; Table 3, 10 μM): 27 percentage | # of Foci (percentage) >2: Percentage of cells with 2 or greater nuclear foci ([2]; Table 3, 10 μM): 23 percentage | Toxicity: Viable (DM1 myoblasts [3]; Table 3, 10 μM): +++ (50-60% cell survival)

CCCCCCc1cc2cc(C(=O)Nc3ccc(Cl)c(Cl)c3)c(=O)oc2cc1O [RCN-017, N-(3,4-dichlorophenyl)-6-hexyl-7-hydroxy-2-oxo-2H-chromene-3-carboxamide]
Toxicity: Toxic (DM1 myoblasts [1]; Table 2, 10 μM): +++++ | Toxicity: Viable (DM1 myoblasts [3]; Table 2, 10 μM): − (less than 10% cell survival)

Source: US20140121236A1, “Compositions and Methods for Treating Myotonic Dystrophy Type 1” (UNIVERSITY OF SOUTHERN CALIFORNIA, priority 2012, published 2014)
